# Where a name gives a salt, the structure may show the parent alone.
# Legend:
# Assay type in all cases: biochemical
# [1] = target: T1, recombinant human DAO (diamine oxidase) (Homo sapiens, UniProt P19801); experiment: Activity evaluation on recombinant human DAO (Amplex Red/HRP-coupled assay, 1 mM putrescine substrate); conditions: 1 mM putrescine, read-out: Inhibitory Activity (IC50, nM) DAO
# T1 construct: purchased R&D systems
# T1 sequence (P19801 20-751): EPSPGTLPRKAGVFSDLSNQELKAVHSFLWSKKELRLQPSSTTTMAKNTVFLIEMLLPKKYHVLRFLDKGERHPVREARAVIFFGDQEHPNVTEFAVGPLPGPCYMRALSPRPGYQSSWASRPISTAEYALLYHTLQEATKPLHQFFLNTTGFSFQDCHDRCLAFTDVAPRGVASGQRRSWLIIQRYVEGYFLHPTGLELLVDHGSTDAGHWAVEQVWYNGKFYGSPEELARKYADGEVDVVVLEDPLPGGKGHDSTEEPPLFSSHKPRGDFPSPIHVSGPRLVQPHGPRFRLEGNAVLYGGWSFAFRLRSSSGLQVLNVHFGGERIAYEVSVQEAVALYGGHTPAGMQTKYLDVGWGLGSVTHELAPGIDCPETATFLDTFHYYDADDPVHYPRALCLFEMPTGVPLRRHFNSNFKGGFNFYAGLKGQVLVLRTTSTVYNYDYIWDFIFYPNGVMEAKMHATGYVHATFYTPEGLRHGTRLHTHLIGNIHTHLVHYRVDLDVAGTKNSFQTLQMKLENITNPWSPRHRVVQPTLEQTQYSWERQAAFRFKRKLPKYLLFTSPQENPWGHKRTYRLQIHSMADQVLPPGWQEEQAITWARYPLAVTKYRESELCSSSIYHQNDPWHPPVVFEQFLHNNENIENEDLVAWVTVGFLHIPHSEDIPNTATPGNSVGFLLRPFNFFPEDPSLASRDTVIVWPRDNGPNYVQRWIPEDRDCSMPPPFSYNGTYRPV
# Outline: (§1)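 8-pt 1:3 dilution series, final DMSO <1%; 30 min 37 °C preincubation w/ enzyme, 50 mM Na phosphate pH 7.4; + 200 uM Amplex Red, 1 U/mL HRP, substrate (MAO-A tyramine 0.5 mM; MAO-B benzylamine 1 mM; DAO putrescine 1 mM); fluor. rate 544/590 nm, 1-2 h; 4-param IC50.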
# [2] = target: T2, recombinant human MAO-A (monoamine oxidase-A) (Homo sapiens, UniProt P21397); experiment: Activity evaluation on recombinant human MAO-A (Amplex Red/HRP-coupled assay, 0.5 mM tyramine substrate); conditions: 0.5 mM tyramine, read-out: Inhibitory Activity (IC50, nM) MAO-A
# T2 construct: purchased Sigma-Aldrich
# T2 sequence (P21397 1-527): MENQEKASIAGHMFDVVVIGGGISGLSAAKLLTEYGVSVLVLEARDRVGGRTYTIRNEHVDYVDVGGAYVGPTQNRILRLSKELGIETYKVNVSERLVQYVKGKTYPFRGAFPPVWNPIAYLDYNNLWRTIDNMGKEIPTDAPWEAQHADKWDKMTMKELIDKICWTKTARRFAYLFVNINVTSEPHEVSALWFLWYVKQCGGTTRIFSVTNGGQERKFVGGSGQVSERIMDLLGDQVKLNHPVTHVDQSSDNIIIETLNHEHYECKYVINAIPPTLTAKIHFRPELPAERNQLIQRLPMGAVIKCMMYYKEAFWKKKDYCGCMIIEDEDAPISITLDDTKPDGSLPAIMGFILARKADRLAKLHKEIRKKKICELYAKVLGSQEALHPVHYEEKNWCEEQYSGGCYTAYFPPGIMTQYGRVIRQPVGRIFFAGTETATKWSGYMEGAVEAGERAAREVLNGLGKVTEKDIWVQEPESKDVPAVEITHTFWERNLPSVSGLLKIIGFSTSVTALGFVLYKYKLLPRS
# Outline: as §1
# recombinant human VAP-1 = target: T3, recombinant human VAP-1 (Homo sapiens, UniProt Q16853); experiment: Activity evaluation on recombinant human VAP-1 (Amplex Red/HRP-coupled hydrogen peroxide assay, benzylamine substrate); conditions: recombinant human VAP-1; 30 min preincubation at 37° C.; 1 mM benzylamine; read-out: Inhibitory Activity (IC50, nM) human VAP-1
# T3 construct: purchased R&D systems
# T3 sequence (Q16853 1-763): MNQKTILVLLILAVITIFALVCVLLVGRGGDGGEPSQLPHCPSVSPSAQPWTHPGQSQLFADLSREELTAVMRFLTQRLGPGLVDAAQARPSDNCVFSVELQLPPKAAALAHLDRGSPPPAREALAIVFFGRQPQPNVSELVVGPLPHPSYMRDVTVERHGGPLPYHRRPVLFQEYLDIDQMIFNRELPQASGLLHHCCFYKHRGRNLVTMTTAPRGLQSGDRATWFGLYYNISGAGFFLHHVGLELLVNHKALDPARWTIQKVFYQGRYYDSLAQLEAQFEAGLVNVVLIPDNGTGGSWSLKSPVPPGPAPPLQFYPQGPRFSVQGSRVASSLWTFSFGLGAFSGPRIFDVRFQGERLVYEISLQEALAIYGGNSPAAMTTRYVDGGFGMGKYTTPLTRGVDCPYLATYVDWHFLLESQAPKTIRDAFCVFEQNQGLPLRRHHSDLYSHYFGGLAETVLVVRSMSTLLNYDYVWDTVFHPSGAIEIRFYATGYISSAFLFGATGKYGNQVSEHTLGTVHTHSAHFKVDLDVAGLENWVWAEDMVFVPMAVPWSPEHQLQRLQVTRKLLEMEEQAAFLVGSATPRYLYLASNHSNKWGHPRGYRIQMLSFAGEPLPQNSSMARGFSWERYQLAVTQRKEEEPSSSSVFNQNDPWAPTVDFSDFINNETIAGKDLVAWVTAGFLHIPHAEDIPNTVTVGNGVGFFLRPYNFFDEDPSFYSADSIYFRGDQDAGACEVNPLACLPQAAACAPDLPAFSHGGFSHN
# Outline: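 Hydrogen peroxide from benzylamine (1 mM) oxidation by human recombinant VAP-1 detected via HRP-coupled Amplex Red (200 uM) fluorescence, kinetic over 1–2 h. Enzyme and compound preincubated 30 min at 37 °C, pH 7.4 phosphate; 8-point dose response, signal-rate decrease versus DMSO control fitted to four-parameter logistic for IC50.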
# [3] = target: T4, recombinant human MAO-B (monoamine oxidase-B) (Homo sapiens, UniProt P27338); experiment: Activity evaluation on recombinant human MAO-B (Amplex Red/HRP-coupled assay, 1 mM benzylamine substrate); conditions: 1 mM benzylamine, read-out: Inhibitory Activity (IC50, nM) MAO-B
# T4 construct: purchased Sigma-Aldrich
# T4 sequence (P27338 1-520): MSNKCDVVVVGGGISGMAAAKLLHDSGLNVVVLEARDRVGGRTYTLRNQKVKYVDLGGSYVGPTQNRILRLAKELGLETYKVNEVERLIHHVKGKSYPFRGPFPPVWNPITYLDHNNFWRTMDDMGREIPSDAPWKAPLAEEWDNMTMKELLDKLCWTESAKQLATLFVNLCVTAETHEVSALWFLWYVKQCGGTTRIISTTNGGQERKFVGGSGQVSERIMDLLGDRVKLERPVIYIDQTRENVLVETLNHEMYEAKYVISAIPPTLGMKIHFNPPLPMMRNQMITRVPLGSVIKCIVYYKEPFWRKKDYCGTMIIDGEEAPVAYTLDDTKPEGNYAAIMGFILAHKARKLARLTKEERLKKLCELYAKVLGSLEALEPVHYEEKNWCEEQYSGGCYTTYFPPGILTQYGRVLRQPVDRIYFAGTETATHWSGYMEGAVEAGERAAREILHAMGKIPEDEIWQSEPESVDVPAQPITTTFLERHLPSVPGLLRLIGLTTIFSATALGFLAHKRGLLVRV
# Outline: as §1
Structure (SMILES),IC50 [1],IC50 [2],IC50 (recombinant human VAP-1),IC50 [3]
"Cc1cc(-c2ccnc(-n3cnn(CC(CN)=C(F)F)c3=O)c2)cc2c1NC(=O)CC2 [Example 59, 6-[2-[1-[2-(aminomethyl)-3,3-difluoro-allyl]-5-oxo-1,2,4-triazol-4-yl]-4-pyridyl]-8-methyl-3,4-dihydro-1H-quinolin-2-one Trifluoroacetate]",84 nM,> 100000 nM,0.5 nM,> 100000 nM
"CCn1cc(-c2ccnc(-n3cnn(CC(CN)=C(F)F)c3=O)c2)cn1 [Example 60, 2-[2-(aminomethyl)-3,3-difluoro-allyl]-4-[4-(1-ethylpyrazol-4-yl)-2-pyridyl]-1,2,4-triazol-3-one Trifluoroacetate]",810 nM,> 100000 nM,1.3 nM,> 100000 nM
"CS(=O)(=O)c1ccc(-c2cc(-n3cnn(CC(CN)=C(F)F)c3=O)ccn2)cc1 [Example 61, 2-[2-(aminomethyl)-3,3-difluoro-allyl]-4-[2-(4-methylsulfonylphenyl)-4-pyridyl]-1,2,4-triazol-3-one Trifluoroacetate]",19 nM,> 100000 nM,0.7 nM,14000 nM
"NCC(Cn1ncn(-c2ccnc(-c3ccc(N4CCNCC4)cc3)c2)c1=O)=C(F)F [Example 62, 2-[2-(aminomethyl)-3,3-difluoro-allyl]-4-[2-(4-piperazin-1-ylphenyl)-4-pyridyl]-1,2,4-triazol-3-one Ditrifluoroacetate]",160 nM,> 100000 nM,1.5 nM,> 100000 nM
"NCC(Cn1ncn(-c2ccnc(-c3ccc4c(c3)OCO4)c2)c1=O)=C(F)F [Example 64, 2-[2-(aminomethyl)-3,3-difluoro-allyl]-4-[2-(1,3-benzodioxol-5-yl)-4-pyridyl]-1,2,4-triazol-3-one Trifluoroacetate]",270 nM,> 100000 nM,0.4 nM,480 nM
"Cc1cc(-c2cc(-n3cnn(CC(CN)=C(F)F)c3=O)ccn2)cc2c1NC(=O)CC2 [Example 65, 6-[4-[1-[2-(aminomethyl)-3,3-difluoro-allyl]-5-oxo-1,2,4-triazol-4-yl]-2-pyridyl]-8-methyl-3,4-dihydro-1H-quinolin-2-one Trifluoroacetate]",290 nM,> 100000 nM,0.3 nM,12000 nM
"CN1C(=O)CCc2cc(-c3cc(-n4cnn(CC(CN)=C(F)F)c4=O)ccn3)ccc21 [Example 66, 6-[4-[1-[2-(aminomethyl)-3,3-difluoro-allyl]-5-oxo-1,2,4-triazol-4-yl]-2-pyridyl]-1-methyl-3,4-dihydroquinolin-2-one Trifluoroacetate]",250 nM,> 100000 nM,0.6 nM,4800 nM
"CCn1cc(-c2cc(-n3cnn(CC(CN)=C(F)F)c3=O)ccn2)cn1 [Example 67, 2-[2-(aminomethyl)-3,3-difluoro-allyl]-4-[2-(1-ethylpyrazol-4-yl)-4-pyridyl]-1,2,4-triazol-3-one Trifluoroacetate]",490 nM,> 100000 nM,0.9 nM,8300 nM

# Continued, values first:
IC50 [1],IC50 [2],IC50 (recombinant human VAP-1),IC50 [3],Structure (SMILES)
110 nM,> 100000 nM,0.7 nM,16000 nM,"CN(C)c1ccc(-c2cc(-n3cnn(CC(CN)=C(F)F)c3=O)ccn2)cn1 [Example 63, 2-[2-(aminomethyl)-3,3-difluoro-allyl]-4-[2-[6-(dimethylamino)-3-pyridyl]-4-pyridyl]-1,2,4-triazol-3-one Trifluoroacetate]"
2100 nM,> 100000 nM,0.5 nM,55000 nM,"Cc1cc(-c2ccc(S(C)(=O)=O)cc2)cnc1-n1cnn(CC(CN)=C(F)F)c1=O [Example 68, 2-[2-(aminomethyl)-3,3-difluoro-allyl]-4-[3-methyl-5-(4-methylsulfonylphenyl)-2-pyridyl]-1,2,4-triazol-3-one Trifluoroacetate]"
> 100000 nM,> 100000 nM,1.2 nM,> 100000 nM,"Cc1cc(-c2ccc(N3CCNCC3)cc2)cnc1-n1cnn(CC(CN)=C(F)F)c1=O [Example 69, 2-[2-(aminomethyl)-3,3-difluoro-allyl]-4-[3-methyl-5-(4-piperazin-1-ylphenyl)-2-pyridyl]-1,2,4-triazol-3-one Ditrifluoroacetate]"
1500 nM,> 100000 nM,0.7 nM,5800 nM,"Cc1cc(-c2ccc(C(F)(F)F)nc2)cnc1-n1cnn(CC(CN)=C(F)F)c1=O [Example 70, 2-[2-(aminomethyl)-3,3-difluoro-allyl]-4-[3-methyl-5-[6-(trifluoromethyl)-3-pyridyl]-2-pyridyl]-1,2,4-triazol-3-one Trifluoroacetate]"
> 100000 nM,> 100000 nM,0.8 nM,> 100000 nM,"Cc1cc(-c2ccc(N(C)C)nc2)cnc1-n1cnn(CC(CN)=C(F)F)c1=O [Example 71, 2-[2-(aminomethyl)-3,3-difluoro-allyl]-4-[5-[6-(dimethylamino)-3-pyridyl]-3-methyl-2-pyridyl]-1,2,4-triazol-3-one Trifluoroacetate]"

# — patent publication US11168073B2, “3,3-difluoroallylamines or salts thereof and pharmaceutical compositions comprising the same” (YUHAN CORPORATION, priority 2018, dated 2021)
